Measurements: patent US20230382940A1, “ANTIVIRAL COMPOUNDS AND METHODS OF MAKING AND USING THE SAME” (Gilead Sciences, Inc., priority 2022, published 2023)

Columns and labels:
[1] = tested on: Respiratory syncytial virus recombinant with luciferase (RSV-Luc5); test: NHBE RSV-Luc5 384-well assay (EC50 RSVFLUC NHBE-384 v2), Example W; format: cell-based; conditions: human respiratory syncytial virus, 72 h, read-out: EC50 RSV FLUC NHBE 384 V2 (per Ex. W)
Excerpt: Example W: NHBE RSV-Luc5 384-Well Assay (EC50 RSVFLUC NHBE-384 v2)
Normal Human Bronchial Epithelial (NHBE) cells were purchased from Lonza (Walkersville, MD Cat #CC2540) and maintained in BEGM Bronchial Epithelial Cell Growth Medium BulletKit (Lonza CC-3170).
Cells were thawed, expanded, and were used for experiments at passage 2. Respiratory syncytial virus recombinant with luciferase (RSV-Luc5) (≥1×10^7 Infectious Units/mL (IU/mL) determined by TCID50) was purchased from Microbiologics (Saint Cloud, MN). Viral replication was determined in NHBE cells in the following manner.
Compounds are prepared in 100% DMSO in 384-well polypropylene plates (Greiner, Monroe, NC, Cat #784201) with 8 compounds per plate in grouped replicates of 4 at 10 serially diluted concentrations (1:3). The serially diluted compounds were transferred to low dead volume Echo plates (Labcyte, Sunnyvale, CA, Cat #LP-0200).
The test compounds were spotted to 384-well assay plates (Greiner, Monroe, NC, Cat #781091) at 200 nL per well using an Echo acoustic dispenser (Labcyte, Sunnyvale, CA). NHBE cells were harvested and suspended in BEGM Bronchial Epithelial Cell Growth Medium BulletKit and seeded to the pre-spotted assay plates at 5,000 cells per well in 30 μL. RSV-Luc5 virus was diluted in BEGM Bronchial Epithelial Cell Growth Medium BulletKit at 500,000 Infectious Units (IU) per mL and 10 μL per well was added to the assay plates containing cells and compounds, for an MOI of 1. The assay plates were incubated for 3 days at 37° C. and 5% CO2. At the end of incubation, One-Glo reagent (Promega, Madison, WI, Cat #E6120) was prepared. The assay plates and One-Glo reagent were equilibrated to room temperature for at least 15 minutes. 40 μL per well of One-Glo reagent was added and the plates were incubated at room temperature for 15 minutes before reading the luminescence signal on an EnVision multimode plate reader (Perkin Elmer, Waltham, MA). Remdesivir was used as positive control and DMSO was used as negative control. Values were normalized to the positive and negative controls (as 0% and 100% replication, respectively) and data was fitted using non-linear regression analysis by Gilead's dose response tool. The EC50 value for each compound was defined as the concentration reducing the viral replication by 50%.

[2] = GI S9 stability, rat, Example Y; format: in vitro ADME; conditions: pooled intestinal S9 fractions; rat intestinal S9, 1.0 mg/mL protein, 2 μM compound, pH 7.4; read-out: GIS9 Rat T½ (per Ex. Y)
Description: (§1) Example Y: GI S9 Stability Data
(§2) Stock solutions of test compounds in dimethyl sulfoxide (DMSO) having a final concentration of 10 mM were prepared and used in all experiments. Sekisui XenoTech (Kansas City, KS) provided pooled intestinal S9 fractions. All other chemicals were purchased from Sigma-Aldrich (St. Louis, MO) or VWR (West Chester, PA). Internal Standard/Quench (IS/Q) used to stop reactions was 100 nM labetalol in (by volume) methanol (10%) and acetonitrile (90%).
(§3) Stability in Intestinal S9 Fractions: Duplicate aliquots of test compound or positive control substrate were added to S9 stock diluted with phosphate buffered saline (137 mM NaCl, 2.7 mM KCl, 10 mM phosphate buffer), pH 7.4, to obtain a protein concentration of 1.0 mg/mL. The metabolic reactions were initiated by the addition of the substrates to the S9 reaction mixture to a final concentration of 2 μM. At 0, 10, 20, 30, 60 and 120 min, 25 μL aliquots of the reaction mixture were transferred to plates containing 225 μl of IS/Q solution. After quenching, the plates were centrifuged at 3000×g for 30 minutes. 150 μL aliquots of each supernatant were dried down then reconstituted with 300 μL water. Aliquots (10 μL) of the prepared samples were analyzed on a Thermo Q-Exactive mass spectrometer as described below.
(§4) Liquid Chromatography—Mass Spectrometry: Quantification of test compounds and control substrate was performed by analyte/internal standard peak area ratio (PAR) values measured on a Thermo Q-Exactive mass spectrometer coupled to a Dionex UltiMate 3000 HPLC with a Leap Technologies HTC PAL autosampler. The column used for analysis was a Waters Acquity BEH C18 (1.7 μm particle size, 2.1×50 mm). Mobile phase A consisted of 0.1% (v/v) formic acid in water. Mobile phase B consisted of 0.1% (v/v) formic acid in acetonitrile. Elution of analytes was achieved by a series of linear gradients varying the proportions of A and B. The mass spectrometer was calibrated on a weekly basis and mass tolerance of 5 ppm was used.
(§5) Metabolic stabilities in S9 fractions were determined by measuring the rates of disappearance of test compound and positive control substrate.
(§6) Data (% of substrate remaining) were plotted on a semi-log scale and fitted using an exponential decline model:
(§7) Ct=C0×e^−ln2/T1/2×t • Where Ct—% of substrate remaining at time=t; C0—% of substrate remaining at time=0; t—time; T1/2—half-life. • The Half-life (T1/2) is determined by the following equation: […]
(§8) Assuming a first-order reaction, the slope (k) is extrapolated from the aforementioned plotted data.

[3] = GI S9 stability, human, Example Y; format: in vitro ADME; conditions: pooled intestinal S9 fractions; human intestinal S9, 1.0 mg/mL protein, 2 μM compound, pH 7.4; read-out: GIS9 Human T½ (per Ex. Y)
Description: as §1, §2, §3, §4, §5, §6, §7, §8

Row | Compound | EC50 [1] | half-life at 2 μM [2] | half-life at 2 μM [3]
1 | N#C[C@]1(COC(=O)OC2CCCC2)O[C@@H](c2ccc3c(N)ncnn23)[C@H](O)[C@@H]1O [Compound 1, ((2R,3S,4R,5S)-5-(4-aminopyrrolo[2,1-f][1,2,4]triazin-7-yl)-2-cyano-3,4-dihydroxytetrahydrofuran-2-yl)methyl cyclopentyl carbonate] | 12.8 µM | 6 min | 31 min
2 | CC(C)(C)COC(=O)OC[C@@]1(C#N)O[C@@H](c2ccc3c(N)ncnn23)[C@H](O)[C@@H]1O [Compound 2, ((2R,3S,4R,5S)-5-(4-aminopyrrolo[2,1-f][1,2,4]triazin-7-yl)-2-cyano-3,4-dihydroxytetrahydrofuran-2-yl)methyl neopentyl carbonate] | 11.4 µM | 6 min | 23 min
3 | CC[C@H](C)OC(=O)OC[C@@]1(C#N)O[C@@H](c2ccc3c(N)ncnn23)[C@H](O)[C@@H]1O [Compound 4, ((2R,3S,4R,5S)-5-(4-aminopyrrolo[2,1-f][1,2,4]triazin-7-yl)-2-cyano-3,4-dihydroxytetrahydrofuran-2-yl)methyl ((S)-sec-butyl) carbonate] | 9.85 µM | 10 min | 65 min
4 | N#C[C@]1(COC(=O)OCCc2ccccc2)O[C@@H](c2ccc3c(N)ncnn23)[C@H](O)[C@@H]1O [Compound 5, ((2R,3S,4R,5S)-5-(4-aminopyrrolo[2,1-f][1,2,4]triazin-7-yl)-2-cyano-3,4-dihydroxytetrahydrofuran-2-yl)methyl phenethyl carbonate] | 12.5 µM | 4 min | 44 min
5 | COC(=O)OC[C@@]1(C#N)O[C@@H](c2ccc3c(N)ncnn23)[C@H](O)[C@@H]1O [Compound 6, ((2R,3S,4R,5S)-5-(4-aminopyrrolo[2,1-f][1,2,4]triazin-7-yl)-2-cyano-3,4-dihydroxytetrahydrofuran-2-yl)methyl methyl carbonate] | 36.6 µM | 37 min | 201 min
6 | CC(C)CCOC(=O)OC[C@@]1(C#N)O[C@@H](c2ccc3c(N)ncnn23)[C@H](O)[C@@H]1O [Compound 7, ((2R,3S,4R,5S)-5-(4-aminopyrrolo[2,1-f][1,2,4]triazin-7-yl)-2-cyano-3,4-dihydroxytetrahydrofuran-2-yl)methyl isopentyl carbonate] | 13.9 µM | 3 min | 20 min
7 | CC(C)COC(=O)OC[C@@]1(C#N)O[C@@H](c2ccc3c(N)ncnn23)[C@H](O)[C@@H]1O [Compound 8, ((2R,3S,4R,5S)-5-(4-aminopyrrolo[2,1-f][1,2,4]triazin-7-yl)-2-cyano-3,4-dihydroxytetrahydrofuran-2-yl)methyl isobutyl carbonate] | 12.5 µM | 7 min | 29 min
8 | CCCOC(=O)OC[C@@]1(C#N)O[C@@H](c2ccc3c(N)ncnn23)[C@H](O)[C@@H]1O [Compound 9, ((2R,3S,4R,5S)-5-(4-aminopyrrolo[2,1-f][1,2,4]triazin-7-yl)-2-cyano-3,4-dihydroxytetrahydrofuran-2-yl)methyl propyl carbonate] | 15.9 µM | 8 min | 29 min
9 | CC[C@@H](C)OC(=O)OC[C@@]1(C#N)O[C@@H](c2ccc3c(N)ncnn23)[C@H](O)[C@@H]1O [Compound 10, ((2R,3S,4R,5S)-5-(4-aminopyrrolo[2,1-f][1,2,4]triazin-7-yl)-2-cyano-3,4-dihydroxytetrahydrofuran-2-yl)methyl ((R)-sec-butyl) carbonate] | 11.4 µM | 13 min | 104 min
10 | CC(C)OC(=O)OC[C@@]1(C#N)O[C@@H](c2ccc3c(N)ncnn23)[C@H](O)[C@@H]1O [Compound 11, ((2R,3S,4R,5S)-5-(4-aminopyrrolo[2,1-f][1,2,4]triazin-7-yl)-2-cyano-3,4-dihydroxytetrahydrofuran-2-yl)methyl isopropyl carbonate] | 12 µM | 14 min | 104 min
11 | N#C[C@]1(COC(=O)OC2CCOCC2)O[C@@H](c2ccc3c(N)ncnn23)[C@H](O)[C@@H]1O [Compound 12, ((2R,3S,4R,5S)-5-(4-aminopyrrolo[2,1-f][1,2,4]triazin-7-yl)-2-cyano-3,4-dihydroxytetrahydrofuran-2-yl)methyl (tetrahydro-2H-pyran-4-yl) carbonate] | 8.88 µM | 58 min | 789 min
12 | CC(C)(C)OC(=O)OC[C@@]1(C#N)O[C@@H](c2ccc3c(N)ncnn23)[C@H](O)[C@@H]1O [Compound 13, ((2R,3S,4R,5S)-5-(4-aminopyrrolo[2,1-f][1,2,4]triazin-7-yl)-2-cyano-3,4-dihydroxytetrahydrofuran-2-yl)methyl tert-butyl carbonate] | 10.8 µM | 74 min | 97 min
13 | CCC(CC)OC(=O)OC[C@@]1(C#N)O[C@@H](c2ccc3c(N)ncnn23)[C@H](O)[C@@H]1O [Compound 14, ((2R,3S,4R,5S)-5-(4-aminopyrrolo[2,1-f][1,2,4]triazin-7-yl)-2-cyano-3,4-dihydroxytetrahydrofuran-2-yl)methyl pentan-3-yl carbonate] | 14.9 µM | 16 min | 104 min
14 | CC(C)COC(=O)OC[C@@]1(C#N)O[C@@H](c2ccc3c(N)ncnn23)[C@@H]2OC(=O)O[C@@H]21 [Compound 15, ((3aS,4R,6S,6aS)-6-(4-aminopyrrolo[2,1-f][1,2,4]triazin-7-yl)-4-cyano-2-oxotetrahydrofuro[3,4-d][1,3]dioxol-4-yl)methyl isobutyl carbonate] | 11.4 µM | 2 min | 1 min
15 | CC(C)COC(=O)Nc1ncnn2c([C@@H]3O[C@](C#N)(CO)[C@@H](O)[C@H]3O)ccc12 [Compound 16, Isobutyl (7-((2S,3R,4S,5R)-5-cyano-3,4-dihydroxy-5-(hydroxymethyl)tetrahydrofuran-2-yl)pyrrolo[2,1-f][1,2,4]triazin-4-yl)carbamate] | 50 µM | 789 min | 789 min
16 | N#C[C@]1(COC(=O)OC2CCC2)O[C@@H](c2ccc3c(N)ncnn23)[C@H](O)[C@@H]1O [Compound 17, ((2R,3S,4R,5S)-5-(4-aminopyrrolo[2,1-f][1,2,4]triazin-7-yl)-2-cyano-3,4-dihydroxytetrahydrofuran-2-yl)methyl cyclobutyl carbonate] | 5.96 µM | 7 min | 29 min
